Experimental findings from ChEMBL document CHEMBL1201862, “PubChem BioAssay data set” (2004) are described below.

Common to all, as to assay: NCI-60 cell line screen, 48 h
Experiment [1] deals with T47D.
Experiment [2] relates to NCI-H23.
Experiment [3] relates to Malme-3M.
The subject of experiment [4] is 786-0.
The test system of experiment [5] is HCT-116.
The subject of experiment [6] is SR.
The subject of experiment [7] is MCF7.
For experiment [8], the system named is LOX IMVI.
The test system of experiment [9] is MDA-MB-435.
In experiment [10] the test system is SF-539.
The test system of experiment [11] is UACC-257.
In experiment [12] the test system is NCI/ADR-RES.
In experiment [13] the test system is MDA-N.
In experiment [14] the test system is DU-145.
For experiment [15], the system named is BT-549.
Experiment [16] deals with PC-3.
For experiment [17], the system named is K562.
The subject of experiment [18] is Hs-578T.
Experiment [19] has as its system MDA-MB-231.

Molecules are shown by their SMILES.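 Following 48 hours of exposure in 96-well plates, responses at five concentrations were used to interpolate endpoints linearly. Here, GI50 denotes the concentration required for 50% inhibition of growth.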 Active and inactive are the calls of the source. Cut-off read from the data, not from the text of the source: active = GI50 up to about 1.1 µM and inactive = higher.

With `Cc1cc(C)c2c(O)cc(-c3cccc4ccccc34)nc2n1`, the GI50 is 24.4 µM (inactive) in experiment [1]; 2.13 µM (inactive) in [2]; 0.28 µM (active) in [3]; 0.612 µM (active) in experiment [4]; 0.403 µM (active) in experiment [5]; 0.342 µM (active) in experiment [6]. For the same compound, the GI50 in experiment [7] was 0.719 µM (active); in experiment [8], 0.628 µM (active); in [9] it was 0.172 µM (active); in experiment [10] it was 0.703 µM (active); in experiment [11], 0.238 µM (active); in experiment [12], 0.52 µM (active). Further, the GI50 in experiment [13] was 0.218 µM (active); in [14], 2.71 µM (inactive); in [15], 3.3 µM (inactive); in experiment [16] it was 0.641 µM (active); in experiment [17], 0.386 µM (active); in experiment [18], 1.09 µM (active). Further, the GI50 in [19] was 2.22 µM (inactive).
For `C/C(C[n+]1ccccc1)=N\N=C(N)N`, the GI50 in experiment [1], in experiment [2], in experiment [3], in [4], in experiment [5] and in experiment [7] was > 100 µM (inactive) each time. For the same compound, the GI50 in experiment [8], in [9], in experiment [11], in experiment [12], in [13] and in experiment [14] was > 100 µM (inactive) in each case. The GI50 in experiment [15], in [16], in [17], in [18] and in [19] was > 100 µM (inactive) throughout.
For `CC[n+]1c(-c2ccccc2)c2cc(N)ccc2c2ccc(N)cc21` [HOMIDIUM BROMIDE], the GI50 in experiment [1] is 1.93 µM (inactive); in [2], 1.53 µM (inactive); in experiment [5], 3.62 µM (inactive); in experiment [7] it was 2 µM (inactive); in experiment [9], 3.5 µM (inactive); in experiment [10] it was 1.53 µM (inactive). The GI50 in experiment [11] was 2.01 µM (inactive); in experiment [12], > 100 µM (inactive); in experiment [13] it was 4.2 µM (inactive); in [14], 7.57 µM (inactive); in experiment [15], 1.14 µM (inactive); in experiment [16], 5.06 µM (inactive). In addition, the GI50 is 2.96 µM (inactive) in [17], < 0.01 µM (active) in experiment [18] and 8.55 µM (inactive) in experiment [19].
On to `CN1C(=O)N(C)C2(CCN(CC(CC3OCCO3)c3ccc(F)cc3)CC2)C1=O` (centres undefined), for which the GI50 in experiment [1], in [2], in experiment [3], in experiment [4], in experiment [5] and in [6] was > 100 µM (inactive) throughout. Further, the GI50 in experiment [7], in experiment [8], in experiment [9], in [10], in [11] and in [12] was > 100 µM (inactive) in each case. In addition, the GI50 in [13], in experiment [14], in [15], in experiment [16], in [17] and in [18] was > 100 µM (inactive) throughout. Also, in experiment [19], the GI50 is > 100 µM (inactive).
Regarding `COc1ccc(C[C@H]2COC(=O)[C@@H]2Cc2cccc(Br)c2)cc1OC`, the GI50 in [1] is 27.7 µM (inactive); in experiment [2] it was 21.2 µM (inactive); in experiment [3], 21.2 µM (inactive); in [4], 28.1 µM (inactive); in experiment [5] it was 12.8 µM (inactive); in experiment [6] it was 3.05 µM (inactive). For the same compound, the GI50 was 16.2 µM (inactive) in [7]; 3.85 µM (inactive) in experiment [8]; 26.6 µM (inactive) in [9]; 19.5 µM (inactive) in experiment [10]; 21.5 µM (inactive) in experiment [11]; 24.2 µM (inactive) in experiment [12]. The GI50 in [13] was 20.7 µM (inactive); in experiment [14] it was 33.3 µM (inactive); in experiment [15] it was 13.9 µM (inactive); in [16], 15.8 µM (inactive); in experiment [17], 5.97 µM (inactive); in experiment [18] it was 32.3 µM (inactive). Moreover, the GI50 in experiment [19] is 19.1 µM (inactive).
With `NC(CP(=O)(O)O)C(=O)O` (centres undefined), the GI50 in experiment [1], in [2], in [3], in experiment [4], in experiment [5] and in experiment [6] was > 100 µM (inactive) in each case. In addition, the GI50 is > 100 µM (inactive) in [7]; 43.6 µM (inactive) in [8]; > 100 µM (inactive) in experiment [9]; > 100 µM (inactive) in experiment [11]; > 100 µM (inactive) in [12]; > 100 µM (inactive) in [13]. Further, the GI50 in experiment [14], in [15], in [16], in [17], in [18] and in experiment [19] was > 100 µM (inactive) each time.
In the case of `COc1oc(C2C/C(=C/C(C)=C/C(C)=C/C(C)=C/c3ccc([N+](=O)[O-])cc3)CO2)c(C)c(=O)c1C` (centres undefined), the GI50 in experiment [1] is 1.04 µM (active); in experiment [2], 1.79 µM (inactive); in experiment [3], 3.61 µM (inactive); in experiment [4], 5.64 µM (inactive); in experiment [5] it was < 0.01 µM (active); in experiment [6], < 0.01 µM (active). The GI50 in experiment [7] was 1.59 µM (inactive); in experiment [8], 4.02 µM (inactive); in [9], 3.01 µM (inactive); in experiment [10] it was 12 µM (inactive); in experiment [11] it was 5.32 µM (inactive); in [13] it was 2.74 µM (inactive). The GI50 in experiment [14] was 8.2 µM (inactive); in experiment [15], 2.73 µM (inactive); in [16] it was 2.02 µM (inactive); in experiment [17], < 0.01 µM (active); in experiment [18] it was 5.89 µM (inactive); in experiment [19], 15.8 µM (inactive).
With `O=C(C1=C(C(=O)c2ccccc2)SC2(S1)C(C(=O)c1ccccc1)=C(C(=O)c1ccccc1)Sc1c2ssc1=O)c1ccccc1`, the GI50 in experiment [1] is 97.7 µM (inactive); in experiment [2], > 100 µM (inactive); in [3], > 100 µM (inactive); in experiment [4], 31.1 µM (inactive); in experiment [5], 82.4 µM (inactive); in experiment [6], 9.51 µM (inactive). Besides, the GI50 in experiment [7] is > 100 µM (inactive); in experiment [8] it was > 100 µM (inactive); in experiment [9], 70.6 µM (inactive); in experiment [10] it was 24.4 µM (inactive); in experiment [11], > 100 µM (inactive); in experiment [12], > 100 µM (inactive). For the same compound, the GI50 was 41.1 µM (inactive) in [13]; 72.8 µM (inactive) in experiment [14]; 80.4 µM (inactive) in experiment [15]; > 100 µM (inactive) in experiment [16]; 30.4 µM (inactive) in [17]; > 100 µM (inactive) in experiment [18]. Besides, in experiment [19], the GI50 was 78.9 µM (inactive).
